# Test system: M. tuberculosis H37Rv growth with meropenem, percent inhibition
# Test: beta-lactam sensitization of Mtb H37Rv, H37Rv (AID 434955)
row,Compound,IC90 [µM]
1,S=C(NNc1ccc2ccccc2c1)NC1CCCCC1,41.3
2,CN(C)/N=C/c1ccc(/C=N/NC(N)=S)o1,43.3
3,O=C1O/C(=C/c2ccccc2)N=C1c1ccccc1,28.3
4,O=C(/C=C/c1cccnc1)c1ccc(O)cc1,50.4
5,Cc1cc(=O)[nH]c(N/N=C/c2c(O)n(-c3ccccc3)c(=O)c3ccccc23)n1,13.6
6,O=C(NN1C(=O)c2cc(Br)ccc2NC1c1ccccc1Cl)c1ccncc1 (configuration not stated),13.7
7,Cc1cccc(Nc2nnc(SCC(=O)Nc3ncc(C(F)(F)F)cc3Cl)s2)c1C,21.5
8,CCCCN=C1CC(C)(C)CC(=O)/C1=C(/O)CCC,28.7
9,CCCCN(CC)S(=O)(=O)c1ccc(C(=O)Nc2nnc(CSC)o2)cc1,31.7
10,Cc1ccc(SCCNC(=O)c2ccc(C)c([N+](=O)[O-])c2)cc1,54
11,O=C(O)CSc1ncnc2c1sc1nc(-c3ccccc3)c3c(c12)CCC3,14.2
12,CCCOc1ccccc1NC(=O)/C=C/C(N)=O,27.7
13,COc1cc(CNCCO)cc(Br)c1OCc1ccccc1Cl,52.7
14,COc1cccc(/C=C/c2[nH]c(=O)[nH]c(=O)c2[N+](=O)[O-])c1O,15.9
15,O=C(N/N=C/c1ccc([N+](=O)[O-])o1)c1ccccc1-n1cccc1,29.4
16,O=C(Cc1ccc(Cl)cc1Cl)Nc1ccc(OC(F)F)c(Cl)c1,13.7
17,COC(=O)c1sc(-c2ccc(Cl)cc2)cc1NC(=O)COCC(=O)O,44.8
18,O=C(O)CCN1C(=O)/C(=C/c2ccc(-c3nc4ccccc4s3)o2)SC1=S,78.4
19,O=C(COC(=O)c1ccc([N+](=O)[O-])s1)NCc1ccccc1,39.4
20,O=C1c2ccccc2N2C(=O)c3ccccc3C2N1O (configuration not stated),56.4
21,COc1cc(/C=C/c2ccc3cccc([N+](=O)[O-])c3n2)ccc1OCC(=O)O,12
22,Cc1noc(NS(=O)(=O)c2ccc(N/C=C\C(=O)c3ccc4c(c3)OCO4)cc2)c1C,86
23,CC(NC(=O)CSc1nc2ccccc2c(=O)[nH]1)c1ccccc1 (configuration not stated),60.9
24,O=C1S/C(=C\C=C\c2ccco2)C(=O)N1c1ccccc1,77.6
25,O=C(Cn1cnc2sc3c(c2c1=O)CCCC3)NCC(=O)Nc1ccccc1F,95.5
26,Cc1ccc(C)c(N2CCN(CC3CC=CCC3)CC2)c1 (configuration not stated),60.7

row,Compound,IC90 [µM]
1,CC1CCCN(S(=O)(=O)c2ccc(C(=O)Nc3nnc(-c4ccncc4)o3)cc2)C1 (configuration not stated),64.8
2,O=C(Nc1ccc2nc3n(c(=O)c2c1)CCCC3)c1cc([N+](=O)[O-])ccc1F,91
3,COc1ccccc1C(c1c(N)n(C)c(=O)n(C)c1=O)C(C)[N+](=O)[O-] (configuration not stated),18
4,Cc1cc(C)cc(NC(=O)c2cc(Cl)sc2Cl)c1,7.73
5,Cc1onc(-c2ccccc2Cl)c1C(=O)NCc1ccc2c(c1)cc(C)n2C,29.4
6,CCCCNC(=O)c1onc(CSc2ccc(OC)cc2)c1C(=O)O,27.2
7,CCN(CC(=O)Nc1ccc2c(c1)OCCO2)C(=O)c1ccc([N+](=O)[O-])s1,26
8,COc1ccc(C2(CNC(=O)c3cc([N+](=O)[O-])cc([N+](=O)[O-])c3)CCCC2)cc1OC,1.61
9,O=C(CCNc1ccccc1)c1cccc([N+](=O)[O-])c1,45.8
10,COc1cccc(/C=N/NC(=O)c2cnccn2)c1O,13.9
11,Cc1cc(C)c(OCC(=O)Nc2nc3ccccc3[nH]2)c(C)c1,65.2
12,CCOC(=O)c1c(C)n(-c2ccccc2)c2ccc(OCCN(C)C)cc12,21.7
13,Cc1cc(=S)nc(-c2ccccn2)[nH]1,19.7
14,CCN(CC)CCCNC(=O)c1c(O)c2ccccc2n(Cc2ccccc2)c1=O,13.8
15,CCOc1ccc2c(c1)c(C(C)=O)c(C)n2-c1ccccc1,1.96
16,CC12CCC(C/C1=N\N=C1\NC(=O)/C(=C\c3cccc(Br)c3)S1)C2(C)C (configuration not stated),37.7
17,CC(O)/C=C/c1ccc2ccccc2n1 (configuration not stated),57.5
18,O=C(CSc1ncn[nH]1)Nc1cccc2ccccc12,65
19,COc1cccc(C(=O)C2CCCN(Cc3ccccn3)C2)c1 (configuration not stated),97.5
20,Cc1ccc(C)c(N2CCN(CC3CCCCC3)CC2)c1,52.4
21,Nc1nc(Sc2ncccc2[N+](=O)[O-])n[nH]1,77.1
22,O=c1cc(C(F)(F)F)c2sc(N3CCCCC3)nc2[nH]1,49.3
23,O=C(NCCC1=CCCCC1)c1ccc(Cl)c([N+](=O)[O-])c1,30.2
24,Cc1ccc(C2=N/C(=C\c3cccc(F)c3)C(=O)O2)cc1,4.02
25,NNC(=S)NC1CC2CC1C1C=CCC21 (configuration not stated),13.5
26,Cc1cc(C(=O)CN2C(=O)NC(C)(CC(C)C)C2=O)c(C)n1-c1ccc2c(c1)OCO2 (configuration not stated),96.4
